In one test the test system is ASPC1 cells. In words: Inhibition of KRas-mediated phosphorylation of ERK (Cisbio HTRF pERK), ASPC1 cells. Type of test: cell-based. The note with it: Homo sapiens, AsPC-1 cells; for IC50: ASPC1, 3 h, 3 hr compound incubation, Cisbio pERK HTRF; for inhibition at 0.1 µM: ASPC1, single point at 100 nM, 3 hrs compound incubation.
In the next test the target is KRas WT (Homo sapiens, UniProt P01116). As to the kind of experiment: KRas binding assay (TR-FRET displacement), KRas WT. As to conditions: TR-FRET displacement.
KRas WT, sequence (P01116 1-169 isoform P01116-2): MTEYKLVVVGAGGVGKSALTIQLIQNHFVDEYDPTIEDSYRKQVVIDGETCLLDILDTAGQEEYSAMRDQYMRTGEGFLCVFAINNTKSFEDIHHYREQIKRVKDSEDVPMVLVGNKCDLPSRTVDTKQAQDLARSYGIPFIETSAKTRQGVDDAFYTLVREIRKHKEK
The next test concerns the target KRas G12S (Homo sapiens, UniProt P01116, G12S). It counts as binding. As to conditions: TR-FRET displacement, read-out: Binding to KRas (IC50 nM) G12S.
A further test addresses KRas G13D (Homo sapiens, UniProt P01116, G13D). Type of test: binding. As to conditions: TR-FRET displacement, read-out: Binding to KRas (IC50 nM) G13D.
The test system of a further test is H727 cells. In words: Inhibition of KRas-mediated phosphorylation of ERK (Cisbio HTRF pERK), H727 cells. It counts as cell-based. The note with it: Homo sapiens; for IC50: NCI-H727, 3 h, 3 hr compound incubation, Cisbio pERK HTRF; for inhibition at 0.1 µM: NCI-H727, single point at 100 nM, 3 hrs compound incubation.
In a further test the target is KRas G12V (Homo sapiens, UniProt P01116, G12V). As to the kind of experiment: biochemical. The note with it: Binding to KRas (IC50 nM) G12V, TR-FRET displacement, KRas G12V.
KRas G12V, sequence (P01116 1-169 isoform P01116-2 G12V): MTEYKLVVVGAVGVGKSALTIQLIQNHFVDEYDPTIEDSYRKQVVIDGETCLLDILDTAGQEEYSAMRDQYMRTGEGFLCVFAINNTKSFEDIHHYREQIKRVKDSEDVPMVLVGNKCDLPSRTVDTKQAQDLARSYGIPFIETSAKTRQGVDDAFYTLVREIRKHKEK
The target of the next test is KRas G12R (Homo sapiens, UniProt P01116, G12R). In words: biochemical. As to conditions: Binding to KRas (IC50 nM) G12R, TR-FRET displacement, KRas G12R.
KRas G12R, sequence (P01116 1-169 isoform P01116-2 G12R): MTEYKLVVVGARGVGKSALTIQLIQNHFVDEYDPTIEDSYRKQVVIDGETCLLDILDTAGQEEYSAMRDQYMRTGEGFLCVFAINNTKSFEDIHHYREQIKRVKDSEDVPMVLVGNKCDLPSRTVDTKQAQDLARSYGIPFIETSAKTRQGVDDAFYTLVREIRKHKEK
Another test addresses KRas Q61H (Homo sapiens, UniProt P01116, Q61H). As to the kind of experiment: KRas binding assay (TR-FRET displacement), KRas Q61H. The note with it: TR-FRET displacement.
A further test has as its target KRas G12A (Homo sapiens, UniProt P01116, G12A). It counts as binding. As to conditions: TR-FRET displacement, read-out: Binding to KRas (IC50 nM) G12A.
In a further test the target is KRas G12C (Homo sapiens, UniProt P01116, G12C). It counts as binding. The note with it: TR-FRET displacement, read-out: Binding to KRas (IC50 nM) G12C.
KRas G12C, sequence (P01116 1-169 isoform P01116-2 G12C): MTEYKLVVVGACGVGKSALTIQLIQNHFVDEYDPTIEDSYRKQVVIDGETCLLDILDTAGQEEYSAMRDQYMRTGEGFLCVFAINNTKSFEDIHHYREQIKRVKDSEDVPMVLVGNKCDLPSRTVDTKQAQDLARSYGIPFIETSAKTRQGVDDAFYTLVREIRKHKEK
The next test has as its target KRas G12D (Homo sapiens, UniProt P01116, G12D). As to the kind of experiment: biochemical. As to conditions: Binding to KRas (IC50 nM) G12D, TR-FRET displacement, KRas G12D.

A value given as a limit tells only on which side of the number the result lay.

From patent US20250368649A1, “TETRAHYDROPYRIDOPYRIMIDINE PAN-KRAS INHIBITORS” (Mirati Therapeutics, Inc., priority 2022, published 2025) come the findings set out here.

KRas G12S, sequence (P01116 1-169 isoform P01116-2 G12S): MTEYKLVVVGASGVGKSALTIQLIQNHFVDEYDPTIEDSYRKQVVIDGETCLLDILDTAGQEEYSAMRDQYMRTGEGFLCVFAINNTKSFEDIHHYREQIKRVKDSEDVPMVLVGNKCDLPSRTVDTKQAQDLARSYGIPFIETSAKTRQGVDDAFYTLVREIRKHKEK
KRas G12A, sequence (P01116 1-169 isoform P01116-2 G12A): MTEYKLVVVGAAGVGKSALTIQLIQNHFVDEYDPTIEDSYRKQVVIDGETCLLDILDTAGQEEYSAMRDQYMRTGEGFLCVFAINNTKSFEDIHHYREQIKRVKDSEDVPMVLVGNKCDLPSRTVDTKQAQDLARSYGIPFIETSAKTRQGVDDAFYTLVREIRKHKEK
KRas G12D, sequence (P01116 1-169 isoform P01116-2 G12D): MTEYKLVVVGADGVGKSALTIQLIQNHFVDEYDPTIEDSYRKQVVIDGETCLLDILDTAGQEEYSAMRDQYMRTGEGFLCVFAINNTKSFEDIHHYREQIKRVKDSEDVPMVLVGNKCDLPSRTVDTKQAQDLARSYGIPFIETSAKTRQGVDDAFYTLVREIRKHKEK
KRas G13D, sequence (P01116 1-169 isoform P01116-2 G13D): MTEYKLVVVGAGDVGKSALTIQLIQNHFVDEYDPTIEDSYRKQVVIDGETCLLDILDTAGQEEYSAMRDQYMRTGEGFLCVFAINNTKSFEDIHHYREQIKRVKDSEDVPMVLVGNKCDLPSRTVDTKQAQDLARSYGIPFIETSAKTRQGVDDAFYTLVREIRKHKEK
KRas Q61H, sequence (P01116 1-169 isoform P01116-2 Q61H): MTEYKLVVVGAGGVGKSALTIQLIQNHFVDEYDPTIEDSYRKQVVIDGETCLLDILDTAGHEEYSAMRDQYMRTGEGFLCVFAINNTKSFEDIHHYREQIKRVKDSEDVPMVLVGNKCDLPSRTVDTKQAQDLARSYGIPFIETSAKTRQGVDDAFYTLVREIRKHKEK

For `Cc1cc2[nH]ncc2c(N2CCc3c(nc(OCC45CCCN4CCC5)nc3N3CCCC4(CC(O)C4)C3)C2)c1C` (single isomer, unassigned; isomer 1) [Example 453, 6-(7-(5,6-dimethyl-1H-indazol-4-yl)-2-((hexahydro-1H-pyrrolizin-7a-yl)methoxy)-5,6,7,8-tetrahydropyrido[3,4-d]pyrimidin-4-yl)-6-azaspiro[3.5]nonan-2-ol (isomer 1)], the IC50 turned out to be 9380 nM in the test on ASPC1 cells; 826 nM on KRas WT; 616 nM on KRas G12S; 1150 nM at KRas G13D; 5760 nM in the test with H727 cells; 262 nM on KRas G12V. Besides, the half-inhibitory concentration (IC50) at KRas G12R was found to be 680 nM; on KRas Q61H, 1150 nM; on KRas G12A, 523 nM; on KRas G12C, 464 nM; at KRas G12D, 604 nM.
As to `O=S1(=O)NCC2(CCCN(c3nc(OCC45CCCN4CCC5)nc4c3CCN(c3cc(O)cc(Cl)c3C3CC3)C4)C2)N1` (stereo not drawn) [Example 438, 7-(7-(3-chloro-2-cyclopropyl-5-hydroxyphenyl)-2-((tetrahydro-1H-pyrrolizin-7a(5H)-yl)methoxy)-5,6,7,8-tetrahydropyrido[3,4-d]pyrimidin-4-yl)-2-thia-1,3,7-triazaspiro[4.5]decane 2,2-dioxide], the IC50 in the test with ASPC1 cells is 5610 nM; on KRas WT, less than 2 nM; on KRas G12S it was less than 2 nM; on KRas G13D, less than 2 nM; in the test on H727 cells, 8000 nM; at KRas G12V, less than 2 nM. The IC50 on KRas G12R, on KRas Q61H, on KRas G12A, at KRas G12C and at KRas G12D was less than 2 nM in each case. The results for the inhibition at 0.1 µM in the test with ASPC1 cells and with H727 cells were -4% and -7%, respectively.
Turning to `O=C1NC(=O)C2(CCCN(c3nc(OCC45CCCN4CCC5)nc4c3CCN(c3cc(O)cc(Cl)c3C3CC3)C4)C2)N1` (stereo not drawn) [Example 439, 7-(7-(3-chloro-2-cyclopropyl-5-hydroxyphenyl)-2-((tetrahydro-1H-pyrrolizin-7a(5H)-yl)methoxy)-5,6,7,8-tetrahydropyrido[3,4-d]pyrimidin-4-yl)-1,3,7-triazaspiro[4.5]decane-2,4-dione], the IC50 with ASPC1 cells is greater than 10000 nM; on KRas WT, less than 2 nM; at KRas G12S it was less than 2 nM; at KRas G13D, less than 2 nM; with H727 cells, 6240 nM; on KRas G12V, less than 2 nM. In addition, the IC50 at KRas G12R was less than 2 nM; at KRas Q61H, less than 2 nM; at KRas G12A, less than 2 nM; at KRas G12C it was less than 2 nM; at KRas G12D, 2 nM.
Take `O=C1NCC2(CCCN(c3nc(OCC45CCCN4CCC5)nc4c3CCN(c3cc(O)cc(Cl)c3C3CC3)C4)C2)N1` (stereo not drawn) [Example 442, 7-(7-(3-chloro-2-cyclopropyl-5-hydroxyphenyl)-2-((tetrahydro-1H-pyrrolizin-7a(5H)-yl)methoxy)-5,6,7,8-tetrahydropyrido[3,4-d]pyrimidin-4-yl)-1,3,7-triazaspiro[4.5]decan-2-one]: the IC50 with ASPC1 cells was greater than 10000 nM; on KRas WT, 3 nM; at KRas G12S, 3 nM; on KRas G13D it was 4 nM; in the test on H727 cells it was greater than 10000 nM; on KRas G12V, 3 nM. Moreover, the IC50 at KRas G12R was 3 nM; at KRas Q61H, 2 nM; on KRas G12A, less than 2 nM; on KRas G12C, less than 2 nM; on KRas G12D, less than 2 nM. In addition, the inhibition at 0.1 µM in the test with ASPC1 cells is 9%; in the test on H727 cells, -4%.
